Measurements published in US20030026797A1, “Antifungal compositions” (priority 1996, published 2003).

Key:
[1] = system: conidia of Fusarium oxysporum; test: Survival of hot-water treated conidia of Fusarium oxysporum (plating on PDA-V agar); assay type: cell-based; conditions: 2 hrs at 43.5° C., 25,000 conidia per ml, no enzymes
Experimental: Viability of conidia of Fusarium oxysporum was measured at the start and at the end of the hot-water treatment. (2 hrs at 43.5° C.).
Five samples of 1 ml were mixed each with 20 ml of PDA containing 50 microgram/ml vendarcin (PDA-V) and poured into petri dishes of 14 cm diameter. Colonies were counted after 2 and 5 days at 25° C.
In the presence of natamycin and fungal cell wall degrading enzymes, 2 samples of 25 ml were taken from the bath at the beginning and the end of the treatment. These samples were centrifuged at 3,000*g for 15 min. The pellet containing the conidia was washed several times with sterile water to remove the antifungal agents, followed by centrifugation and dilution to allow for plating on PDA-V as described above. […]
Chitinase and β-1,3-glucanase respectively were added to the hot-water bath to a final activity of 36,000 and 10,000 units per liter. Units are as defined in Example 1.

[2] = system: Rhizoctonia; test: Soil treatment against Rhizoctonia infection of flower bulbs (visual inspection after 4 weeks); assay type: in vivo; conditions: 18° C.
Experimental: Bulbs were planted in pots at standard soil at a depth of 20 cm. Oat borne sclerotia of Rhizoctonia were mixed through the soil to infect the bulbs. Temperature was maintained at 18° C. during the experiment. Experiments were replicated 5 fold. Natamycin and fungal cell wall degrading enzymes were mixed as powders through the soil prior to infection with Rhizoctonia. Natamycin was tested at final concentrations of 1000, 500 and 100 mg/kg. Chitinase and β-1,3-glucanase was mixed through the soil to a final activity of 3600 and 1000 units per kg of soil. After 4 weeks bulbs were monitored for fungal infection by means of visual inspection.

C[C@@H]1C/C=C/C=C/C=C/C=C/[C@H](O[C@@H]2O[C@H](C)[C@@H](O)[C@H](N)[C@@H]2O)C[C@@H]2O[C@](O)(C[C@@H](O)C[C@H]3O[C@@H]3/C=C/C(=O)O1)C[C@H](O)[C@H]2C(=O)O [Natamycin, natamycin]
Surviving conidia per ml ([1]; natamycin 100 mg/L in hot-water bath): 70 per ml
Surviving conidia per ml ([1]; natamycin 200 mg/L in hot-water bath): 50 per ml
Surviving conidia per ml ([1]; natamycin 300 mg/L in hot-water bath): <1 per ml
Percentage of bulbs showing fungal infection ([2]; natamycin 100 mg/kg soil): 50%
Percentage of bulbs showing fungal infection ([2]; natamycin 500 mg/kg soil): 42%
Percentage of bulbs showing fungal infection ([2]; natamycin 1000 mg/kg soil): 19%
